The experiment addresses T1, E. coli DdlB enzyme (D-alanine:D-alanine ligase) (Escherichia coli, UniProt P07862).
T1 construct: made in house; host or cells: E. coli
The experiment is described as follows: biochemical. Conditions: read-out: DdlB RA; for remaining activity at 2100 µM: tested concentration 2.1 mM; for remaining activity at 2300 µM: tested concentration 2.3 mM; for remaining activity at 3000 µM: tested concentration 3.0 mM; for remaining activity at 2500 µM: tested concentration 2.5 mM; for remaining activity at 2200 µM: tested concentration 2.2 mM; for remaining activity at 1900 µM: tested concentration 1.9 mM; for remaining activity at 2600 µM: tested concentration 2.6 mM; for remaining activity at 2700 µM: tested concentration 2.7 mM; for remaining activity at 2800 µM: tested concentration 2.8 mM; for remaining activity at 1700 µM: tested concentration 1.7 mM; for remaining activity at 2400 µM: tested concentration 2.4 mM; for remaining activity at 3100 µM: tested concentration 3.1 mM; for remaining activity at 3200 µM: tested concentration 3.2 mM; for remaining activity at 3500 µM: tested concentration 3.5 mM; for remaining activity at 2000 µM: tested concentration 2.0 mM. The method, then: The fragment library was assayed in a DdlB inhibition assay, where fragments were tested for their ability to inhibit the D-Ala-adding activity of DdlB ligase. The orthophosphate formed during the enzymatic reaction was measured spectrophotometrically using malachite green reagent.
A recombinant E. coli DdlB enzyme (D-alanine:D-alanine ligase) was expressed in E. coli[11]. […] The final DMSO concentration was 5%. […] All experiments were performed in duplicates. […] IC50 values were determined by measuring the residual activities in quadruplicate at seven different compound concentrations and calculated using in GraphPad Prism (GraphPad Software, San Diego, CA, USA).

The mark [1] stands for this setting: residual activity of DdlB, fragment library screening.
[2] abbreviates: residual activity, tested concentration 1.8 mM.

The values below come from PMC9718554, “Discovery of a fragment hit compound targeting D-Ala:D-Ala ligase of bacterial peptidoglycan biosynthesis” (Journal of Enzyme Inhibition and Medicinal Chemistry, 2022).

Read-outs that look alike come from different tables or passages of the source.

With `CC(C)(C)C(N)Cn1cccn1` (stereo not drawn) [Compound 8014-1588], the remaining activity at 2100 µM under setting [1] is 99%. With `O=C1C(O)CC2c3ccccc3CC3(CCCC3)N12` (stereo not drawn) [Compound 8014-1716], the remaining activity at 2300 µM was 85%. As for `CC(C)n1ncc(C(N)=O)c1N` [Compound 8014-2120], the remaining activity at 3000 µM under setting [1] was determined as 92%. As to `CC(=O)N1CCC(O)C2CCCCC21` (stereo not drawn) [Compound 8014-2178], the remaining activity at 2500 µM was determined as 99%. As to `COC(=O)C(O)(c1cc(C)c(N)c(C)c1)C(F)(F)F` (stereo not drawn) [Compound 8015-4257], the remaining activity at 1800 µM came out at 94%.

As for `Cc1nn(-c2ccccn2)c2c1C(=O)C(C#N)CC2` (stereo not drawn) [Compound 8015-7286], the remaining activity at 2200 µM worked out at 83%. For the compound `O=C(O)CC1(CC(=O)Nc2cccnc2)CCCC1` [Compound 8016-0695], the remaining activity at 1900 µM (fragment library screening) came out at 93%. On to `Cc1cc(O)n(-c2nnn[nH]2)n1` [Compound 8016-1033], for which the remaining activity at 3000 µM came out at 80%. On to `O=C(O)c1nc2ccccc2nc1O` [Compound 8016-8257], for which the remaining activity at 2600 µM worked out at 97%. Regarding `N#Cc1ccccc1S(N)(=O)=O` [Compound 8016-9723], the remaining activity at 2700 µM was found to be 88%. Regarding `COc1cc(C(=O)NO)cc(OC)c1OC` [Compound 8017-0604], the remaining activity at 2200 µM (residual activity) amounted to 96%. On to `O=C(O)c1n[nH]cc1Br` [Compound 8017-3539], for which the remaining activity at 2600 µM worked out at 87%. For the compound `COC(=O)c1nnn(-c2ccccc2)c1O` [Compound 8017-3559], the remaining activity at 2300 µM amounted to 104%. As to `C=CCN1C(=O)NOC(N)=C1C#N` [Compound 8017-4055], the remaining activity at 2800 µM is 92%. For the compound `NS(=O)(=O)c1ccc(NC(=O)CCn2cnnn2)cc1` [Compound 8017-4431], the remaining activity at 1700 µM is 99%.

As for `O=C(O)c1cccc2c1C(=O)N(Cc1ccncc1)C2` [Compound 8017-6147], the remaining activity at 1900 µM (fragment library screening) was determined as 90%. In the case of `CC1=NN(C(C#N)c2cn(C)nc2C)C(C)(C)C1` (stereo not drawn) [Compound 8017-8222], the remaining activity at 2400 µM was found to be 105%. `COc1cc(OC)c2cc(C(=O)O)[nH]c2c1` [Compound 8017-9359]: where the note is “residual activity”, the remaining activity at 2300 µM turned out to be 104%.

Turning to `Oc1cc(-c2cccnc2)n[nH]1` [Compound 8018-0078], the remaining activity at 3100 µM worked out at 91%.

For the compound `N#CCc1nnc(-c2cccc(Cl)c2)[nH]1` [Compound 8018-3009], where the note is “residual activity”, the remaining activity at 2300 µM was determined as 93%.

As for `CC(C)(C)OC(=O)n1c(B(O)O)cc2ccccc21` [Compound 8018-6383], the remaining activity at 1900 µM was determined as 75%.

As to `Oc1nonc1NCc1ccccc1` [Compound 8018-6481], the remaining activity at 2600 µM was 102%. For the compound `OB(O)c1ccn[nH]1` [Compound 8018-7072], the remaining activity at 4500 µM (tested concentration 4.5 mM) is 87%.

Regarding `Oc1nonc1N1CCOCC1` [Compound 8018-8552], the remaining activity at 2900 µM (tested concentration 2.9 mM) amounted to 92%.

With `Oc1nonc1N1CCCC1` [Compound 8018-8553], the remaining activity at 3200 µM stood at 116%.

Regarding `O=C(O)c1cnn(-c2ccccn2)c1` [Compound 8018-8592], the remaining activity at 2700 µM was 94%. On to `Cc1noc(-c2cccnc2Cl)n1` [Compound 8018-8637], for which the remaining activity at 2800 µM turned out to be 96%. With `O=S(=O)(O)c1nnc(-c2ccccc2)o1` [Compound 8018-8658], the remaining activity at 2200 µM stood at 98%. With `O=C(O)c1cc(CO)on1` [Compound 8018-8667], the remaining activity at 3500 µM turned out to be 99%. Consider `NS(=O)(=O)c1ccc2c(c1)CCN2` [Compound 8018-8673], for which the remaining activity at 2500 µM is 80%.

Turning to `Cc1[nH]c(N)c(C#N)c1C` [Compound 8018-8696], the remaining activity at 4400 µM (residual activity of DdlB, fragment library screening, tested concentration 4.4 mM) turned out to be 98%. Turning to `Nc1ccc2c(c1)[C@@H](O)C[C@@H](C(F)(F)F)O2` [Compound 8018-8746], the remaining activity at 2600 µM came to 98%. For the compound `N#CCc1nnn[nH]1` [Compound 8018-8768], the remaining activity at 5500 µM (residual activity of DdlB, fragment library screening, tested concentration 5.5 mM) is 97%. As for `CCc1c(C)nn(-c2nnn[nH]2)c1O` [Compound 8019-0165], the remaining activity at 2600 µM was 76%.

Regarding `CC1(C)CC(O)(c2cc(C(=O)O)no2)CCO1` (stereo not drawn) [Compound 8019-4352], the remaining activity at 2500 µM amounted to 72%.

Take `Cc1nc2ccc(Br)cn2c1C(=O)O` [Compound 8019-4469]: the remaining activity at 2000 µM (residual activity) amounted to 94%. Regarding `N#Cc1oc2ccccc2c1N` [Compound 8019-4478], the remaining activity at 3500 µM under setting [1] worked out at 85%. Turning to `CC(c1c[nH]c2ccccc12)C(O)C(=O)O` (stereo not drawn) [Compound 8019-4518], the remaining activity at 2300 µM (residual activity) came to 100%. `COc1nonc1O` [Compound 8019-4549]: the remaining activity at 4300 µM (tested concentration 4.3 mM) was determined as 93%. `N#CC1(N2CCOCC2)CCCC1` [Compound 8019-5695]: the remaining activity at 2800 µM under setting [1] turned out to be 105%. For `COc1ccccc1Nc1ncccc1C(=O)O` [Compound 8019-5848], the remaining activity at 2000 µM (residual activity) came to 99%. Take `Cc1nc2c(C)cccn2c1C(=O)O` [Compound 8019-6472]: the remaining activity at 2600 µM came to 93%.

With `O=S(=O)(O)c1nc2ccccc2n1Cc1ccccc1` [Compound 8019-7098], the remaining activity at 1700 µM came out at 102%. `O=C(O)c1cc(S(=O)(=O)N2CCCC2)ccc1O` [Compound 8019-7119]: the remaining activity at 1800 µM under setting [2] is 97%.

As for `O=C(O)CCc1cc(=O)[nH]o1` [Compound 8019-7777], the remaining activity at 3200 µM is 91%. `O=C(O)Cc1n[nH]c(-c2ccncc2)n1` [Compound 8019-7883]: the remaining activity at 2500 µM was 97%. Turning to `O=C(O)c1ccccc1-c1ncc[nH]1` [Compound 8019-7907], the remaining activity at 2700 µM is 102%. Turning to `Cc1cc(C)c2ccc(C(=O)O)cc2n1` [Compound 8019-7912], the remaining activity at 2500 µM was determined as 88%. As for `O=C(O)C1CCN(c2nc3cc(Cl)ccc3o2)CC1` [Compound 8019-8559], the remaining activity at 1800 µM (fragment library screening, tested concentration 1.8 mM) was 93%.

Regarding `Cn1ccnc1S(=O)(=O)O` [Compound 8019-8648], the remaining activity at 3100 µM turned out to be 92%. `Cn1nnc(-c2ccc(C(=O)O)c(N)c2)n1` [Compound 8019-8673]: where the note is “residual activity”, the remaining activity at 2300 µM worked out at 115%. Regarding `O=C(Cc1n[nH]c(-c2cccnc2)n1)NCC1CCCO1` (stereo not drawn) [Compound 8019-9738], where the note is “residual activity”, the remaining activity at 1700 µM was determined as 94%. `N#Cc1cccc2[nH]ccc12` [Compound 8019-9980]: the remaining activity at 4200 µM is 101%.

For the compound `COc1cccc2c(O)c(C(=O)O)cnc12` [Compound 8019-9999], where the note is “residual activity”, the remaining activity at 2300 µM was determined as 78%. As to `CC(=O)Nc1cc(-n2cnnc2)ccc1C(=O)O` [Compound 8020-0076], the remaining activity at 2000 µM (residual activity) turned out to be 97%. On to `O=C(O)CCCC1C(=O)Nc2ccccc21` (stereo not drawn) [Compound 8020-0144], for which the remaining activity at 2300 µM worked out at 93%. Regarding `OC12CC3CC(C1)CC(NCc1cccnc1)(C3)C2` [Compound 8020-0633], for the setting “tested concentration 1.8 mM”, the remaining activity at 1800 µM is 92%. With `Cc1nnc(-c2ccc(C(=O)O)c(N)c2)o1` [Compound 8020-0732], the remaining activity at 2300 µM (residual activity) was 114%.

Turning to `O=C(Cc1nc(-c2ccccn2)n[nH]1)NCC1CCCO1` (stereo not drawn) [Compound 8020-1329F], the remaining activity at 1700 µM (residual activity) came to 104%. `O=C(O)Cc1nc(-c2cnccn2)n[nH]1` [Compound 8020-1590]: the remaining activity at 2400 µM was 102%. On to `O=C(O)c1cccnc1NCc1ccc(F)cc1` [Compound 8020-1800], for which, under “residual activity”, the remaining activity at 2000 µM is 102%. Regarding `Nc1ccc2ncc(C(=O)O)c(O)c2c1` [Compound 8020-1815], the remaining activity at 2500 µM was 42%.

Consider `OCc1noc(C2CC2)n1` [Compound 8020-1925], for which, under “residual activity of DdlB, fragment library screening, tested concentration 3.9 mM”, the remaining activity at 3900 µM was 98%. Regarding `O=C1CC(c2ccccc2)c2snc(C(=O)O)c2N1` (stereo not drawn) [Compound 8020-2209], under setting [2], the remaining activity at 1800 µM came to 94%. `O=C(O)c1cnc(-c2ccc(F)cc2)[nH]c1=O` [Compound 8020-2279]: the remaining activity at 2100 µM (residual activity) stood at 94%. For `COc1cccc(F)c1B(O)O` [Compound 8020-2294], the remaining activity at 2900 µM is 97%. Consider `Nc1c(C(=O)O)cnc2ccc(F)cc12` [Compound 8020-2302], for which the remaining activity at 2400 µM was found to be 93%.

As to `O=C(O)CCc1cn2cccnc2n1` [Compound 8020-2316], the remaining activity at 2600 µM was found to be 94%. On to `O=C(O)c1[nH]c2ccc(F)cc2c1Br` [Compound 8020-2406], for which, under “residual activity”, the remaining activity at 1900 µM was 89%.
